Reference: PubChem BioAssay AID248 (DTP/NCI, 2004)
“And” between values parts separate entries of the source, which are not always exact repeats. Equal values may be shown once. Inconclusive results and toxic doses are left out. Rule as the data show it: active = T/C of 150% or more; inactive = T/C below 125%.

Tested on: L1210 leukemia ip in BDF1 mice, survival T/C
Experiment: NCI In Vivo Anticancer Drug Screen. Data for tumor model L1210 Leukemia (intraperitoneal) in B6D2F1 (BDF1) mice
Settings: higher = longer survival
Procedure, shortened: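 Ratio derived from survival: compound-dosed mice over vehicle-dosed mice, all bearing a transplantable tumor.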

[1] = endpoint: mean survival time, dose: 50.0 mg/kg/injection, schedule: Q01DX001 (ip), vehicle: saline
[2] = endpoint: mean survival time, dose: 100.0 mg/kg/injection, schedule: Q01DX001 (ip), vehicle: saline
[3] = endpoint: mean survival time, dose: 200.0 mg/kg/injection, schedule: Q01DX001 (ip), vehicle: saline
[4] = endpoint: mean survival time, dose: 400.0 mg/kg/injection, schedule: Q01DX001 (ip), vehicle: saline
[5] = endpoint: mean survival time, dose: 100.0 mg/kg/injection, schedule: Q04DX003 (ip), vehicle: Klucel (hydroxypropylcellulose) (HPC)
[6] = endpoint: mean survival time, dose: 200.0 mg/kg/injection, schedule: Q04DX003 (ip), vehicle: Klucel (hydroxypropylcellulose) (HPC)
[7] = endpoint: mean survival time, dose: 400.0 mg/kg/injection, schedule: Q04DX003 (ip), vehicle: Klucel (hydroxypropylcellulose) (HPC)
[8] = endpoint: mean survival time, dose: 100.0 mg/kg/injection, schedule: Q01DX009 (ip), vehicle: Klucel (hydroxypropylcellulose) (HPC)
[9] = endpoint: mean survival time, dose: 200.0 mg/kg/injection, schedule: Q01DX009 (ip), vehicle: Klucel (hydroxypropylcellulose) (HPC)
[10] = endpoint: mean survival time, dose: 400.0 mg/kg/injection, schedule: Q01DX009 (ip), vehicle: Klucel (hydroxypropylcellulose) (HPC)
[11] = endpoint: mean survival time, dose: 100.0 mg/kg/injection, schedule: Q04DX002 (ip), vehicle: Klucel (hydroxypropylcellulose) (HPC)
[12] = endpoint: mean survival time, dose: 200.0 mg/kg/injection, schedule: Q04DX002 (ip), vehicle: Klucel (hydroxypropylcellulose) (HPC)
[13] = endpoint: mean survival time, dose: 100.0 mg/kg/injection, schedule: Q04DX003 (ip), vehicle: saline with Tween-80
[14] = endpoint: mean survival time, dose: 200.0 mg/kg/injection, schedule: Q04DX003 (ip), vehicle: saline with Tween-80
[15] = endpoint: mean survival time, dose: 400.0 mg/kg/injection, schedule: Q04DX003 (ip), vehicle: saline with Tween-80

Measured: T/C

Cc1c(C(=O)/C=C/c2ccccc2)cc([N+](=O)[O-])cc1[N+](=O)[O-]
inactive: [1] 92 % of control | [2] 98 % of control | [3] 100 % of control | [4] 93 % of control

Cc1oc2ccc(O)c(N=Nc3cccc([N+](=O)[O-])c3)c2c1C
inactive: [5] 97 % of control | [6] 101 % of control | [7] 109 % of control

CCCOC(=O)COc1ccc(Cl)cc1
inactive: [8] 97 % of control | [9] 95 % of control | [10] 104 % of control

CNc1cc(C(=O)O)nc(NC)n1
inactive: endpoint: mean survival time, dose: 25.0 mg/kg/injection, schedule: Q01DX Z (ip), vehicle: saline 102 % of control | endpoint: mean survival time, dose: 50.0 mg/kg/injection, schedule: Q01DX Z (ip), vehicle: saline 98 % of control

C=C(Cl)CSc1ccccc1
inactive: [2] 103 % of control | [3] 103 % of control | [4] 105 % of control

CC(=O)c1cccc(NC(=O)c2ccc(C(=O)Nc3cccc(C(C)=O)c3)cc2)c1
inactive: endpoint: mean survival time, dose: 100.0 mg/kg/injection, schedule: Q01DX001 (ip), vehicle: other 104 % of control | endpoint: mean survival time, dose: 200.0 mg/kg/injection, schedule: Q01DX001 (ip), vehicle: other 102 % of control | endpoint: mean survival time, dose: 400.0 mg/kg/injection, schedule: Q01DX001 (ip), vehicle: other 89 % of control

O=[N+]([O-])c1cccc(S/N=C/c2ccccc2O)c1
inactive: [11] 102 % of control | [12] 97 % of control | endpoint: mean survival time, dose: 400.0 mg/kg/injection, schedule: Q04DX002 (ip), vehicle: Klucel (hydroxypropylcellulose) (HPC) 108 % of control

CCN(CC)C(=O)Cn1ccc(O)cc1=O
inactive: [13] 109 % of control | [14] 98 % of control | [15] 104 % of control

CCCCNC(=O)c1n[se]nc1NC(N)=O
inactive: endpoint: mean survival time, dose: 25.0 mg/kg/injection, schedule: Q01DX Z (ip), vehicle: carboxymethylcellulose (CMC) 91 % of control | endpoint: mean survival time, dose: 37.5 mg/kg/injection, schedule: Q01DX Z (ip), vehicle: carboxymethylcellulose (CMC) 89 % of control | endpoint: mean survival time, dose: 50.0 mg/kg/injection, schedule: Q01DX Z (ip), vehicle: carboxymethylcellulose (CMC) 90 % of control

CCCCN(C)N=Nc1ccc(Cl)cc1C(N)=O
inactive: endpoint: mean survival time, dose: 100.0 mg/kg/injection, schedule: Q01DX001 (ip), vehicle: Klucel (hydroxypropylcellulose) (HPC) 102 % of control | [8] 110 % of control | [5] 109 % of control | endpoint: mean survival time, dose: 200.0 mg/kg/injection, schedule: Q01DX001 (ip), vehicle: Klucel (hydroxypropylcellulose) (HPC) 107 % of control | [9] 105 % of control | [6] 96 % of control | endpoint: mean survival time, dose: 400.0 mg/kg/injection, schedule: Q01DX001 (ip), vehicle: Klucel (hydroxypropylcellulose) (HPC) 98 % of control | [10] 105 % of control | [7] 93 % of control

Cc1o[nH]c(=O)c1C
inactive: [13] 103 % of control | [14] 94 % of control | [15] 103 % of control

COC(=O)c1ccc(C(=O)OC)c(=O)[nH]1
inactive: [8] 109 % of control | [5] 103 % of control | [9] 101 % of control | [6] 102 % of control | [10] 102 % of control | [7] 97 % of control

O=[N+]([O-])c1ccc(N/N=C(\CBr)c2ccccc2)c([N+](=O)[O-])c1
inactive: endpoint: mean survival time, dose: 100.0 mg/kg/injection, schedule: Q01DX009 (ip), vehicle: saline with Tween-80 94 % of control | endpoint: mean survival time, dose: 200.0 mg/kg/injection, schedule: Q01DX009 (ip), vehicle: saline with Tween-80 95 % of control | endpoint: mean survival time, dose: 400.0 mg/kg/injection, schedule: Q01DX009 (ip), vehicle: saline with Tween-80 94 % of control

O=C1C2C(=C3CCCCC3)C=CC2C1(c1ccccc1)c1ccccc1 (configuration not stated)
inactive: [5] 101 % of control | [6] 95 % of control | [7] 94 % of control

C=C(CCC(=O)OC)C1=C(C)CC2OC(=O)C(=C)C2C1 (configuration not stated)
inactive: endpoint: mean survival time, dose: 50.0 mg/kg/injection, schedule: Q04DX002 (ip), vehicle: saline 120 % of control | endpoint: mean survival time, dose: 100.0 mg/kg/injection, schedule: Q04DX002 (ip), vehicle: saline 113 % of control | endpoint: mean survival time, dose: 200.0 mg/kg/injection, schedule: Q04DX002 (ip), vehicle: saline 100 % of control

O=C1CCCc2c1[nH]c1ccccc21
inactive: [13] 97 % of control | [14] 98 % of control | [15] 98 % of control

COC(=O)c1cc([N+](=O)[O-])cc2ccccc12
inactive: [8] 99 % of control | [5] 105 % of control | [9] 96 % of control | [6] 94 % of control | [7] 97 % of control

C1CCC(C2CCCC[N-]2)[N-]C1.C1CCC(C2CCCC[N-]2)[N-]C1.C1CCC(C2CCCC[N-]2)[N-]C1.[Fe+6] (configuration not stated)
inactive: endpoint: mean survival time, dose: 10.0 mg/kg/injection, schedule: Q01DX001 (ip), vehicle: saline 98 % of control | endpoint: mean survival time, dose: 20.0 mg/kg/injection, schedule: Q01DX001 (ip), vehicle: saline 104 % of control

CC(C#N)CC12CCCCC1CC/C(=C\c1ccccc1)C2=O (configuration not stated)
inactive: [5] 102 % of control | [6] 96 % of control | [7] 96 % of control

CCOc1cc(/C=N\Nc2nncn2N)ccc1N(CCCl)CCCl
inactive: endpoint: mean survival time, dose: 0.5 mg/kg/injection, schedule: Q01DX015 (ip), vehicle: carboxymethylcellulose (CMC) 109 % of control | endpoint: mean survival time, dose: 1.0 mg/kg/injection, schedule: Q01DX015 (ip), vehicle: carboxymethylcellulose (CMC) 111 % of control | endpoint: mean survival time, dose: 2.0 mg/kg/injection, schedule: Q01DX015 (ip), vehicle: carboxymethylcellulose (CMC) 116 % of control | endpoint: mean survival time, dose: 4.0 mg/kg/injection, schedule: Q01DX015 (ip), vehicle: carboxymethylcellulose (CMC) 101 % of control and 109 % of control | endpoint: mean survival time, dose: 5.0 mg/kg/injection, schedule: Q01DX001 (ip), vehicle: carboxymethylcellulose (CMC) 98 % of control and 117 % of control | endpoint: mean survival time, dose: 7.0 mg/kg/injection, schedule: Q01DX015 (ip), vehicle: carboxymethylcellulose (CMC) 107 % of control and 90 % of control | endpoint: mean survival time, dose: 10.0 mg/kg/injection, schedule: Q01DX001 (ip), vehicle: carboxymethylcellulose (CMC) 101 % of control | endpoint: mean survival time, dose: 12.0 mg/kg/injection, schedule: Q01DX015 (ip), vehicle: carboxymethylcellulose (CMC) 98 % of control and 117 % of control | endpoint: mean survival time, dose: 20.0 mg/kg/injection, schedule: Q01DX001 (ip), vehicle: carboxymethylcellulose (CMC) 95 % of control and 106 % of control | endpoint: mean survival time, dose: 20.0 mg/kg/injection, schedule: Q01DX015 (ip), vehicle: carboxymethylcellulose (CMC) 120 % of control | endpoint: mean survival time, dose: 40.0 mg/kg/injection, schedule: Q01DX001 (ip), vehicle: carboxymethylcellulose (CMC) 106 % of control

OCC(O)C(O)C(O)C(O)C(c1ccc(F)cc1)c1ccc(F)cc1 (configuration not stated)
inactive: [1] 98 % of control | [2] 106 % of control and 102 % of control | [3] 101 % of control | [4] 93 % of control

COc1ccc(OC)c2c1C(=O)CC2C (configuration not stated)
inactive: endpoint: mean survival time, dose: 100.0 mg/kg/injection, schedule: Q01DX009 (ip), vehicle: saline 100 % of control | endpoint: mean survival time, dose: 100.0 mg/kg/injection, schedule: Q04DX003 (ip), vehicle: saline 96 % of control | endpoint: mean survival time, dose: 200.0 mg/kg/injection, schedule: Q01DX009 (ip), vehicle: saline 96 % of control | endpoint: mean survival time, dose: 200.0 mg/kg/injection, schedule: Q04DX003 (ip), vehicle: saline 96 % of control | endpoint: mean survival time, dose: 400.0 mg/kg/injection, schedule: Q04DX003 (ip), vehicle: saline 91 % of control

C[N+]1(C)C2CCC1[C@H](C(=O)[O-])[C@@H](O)C2 (some centres not stated)
inactive: [2] 103 % of control | [3] 93 % of control | [4] 98 % of control

Cc1cc(C)c(S(N)(=O)=O)c(C)c1
inactive: endpoint: mean survival time, dose: 50.0 mg/kg/injection, schedule: Q04DX002 (ip), vehicle: Klucel (hydroxypropylcellulose) (HPC) 94 % of control | [11] 107 % of control | [12] 94 % of control

O=C1NC(=O)C2(CCc3ccc(N(CCCl)CCCl)cc32)N1 (configuration not stated)
inactive: endpoint: median survival time, dose: 100.0 mg/kg/injection, schedule: Q01DX009 (ip), vehicle: Klucel (hydroxypropylcellulose) (HPC) 105 % of control

CCC(CC)(C1CCC(O)CC1)C1CCC(O)CC1 (configuration not stated)
inactive: endpoint: mean survival time, dose: 75.0 mg/kg/injection, schedule: Q01DX001 (ip), vehicle: carboxymethylcellulose (CMC) 93 % of control | endpoint: mean survival time, dose: 150.0 mg/kg/injection, schedule: Q01DX001 (ip), vehicle: carboxymethylcellulose (CMC) 91 % of control | endpoint: mean survival time, dose: 300.0 mg/kg/injection, schedule: Q01DX001 (ip), vehicle: carboxymethylcellulose (CMC) 89 % of control
